Experimental findings from patent publication EP4752152A1, “STEROID COMPOUND, AND PREPARATION METHOD THEREFOR AND USE THEREOF” (Cholesgen (Shanghai) Co.Ltd., priority 2023, dated 2025) are described below.

SMILES strings stand for the structures. Where only a bound is given, the exact number is not on record here.

In experiment [1] the test system is Fatty Acid Synthase (FASN) gene. Put plainly: Inhibition of FASN gene expression (qPCR) in Huh-7 cells. The following applies: Homo sapiens, Huh-7, 16 h, Huh-7 cells, starvation medium, 16 hours, qPCR; class symbols; read-out: FASN IC50. The experiment is classed as cell-based, human. The method in brief:
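IC50 derived by four-parameter fit of FASN expression inhibition versus DMSO, measured by RT-qPCR. Compound exposure lasted 16 h at five 3-fold concentrations from 3000 nM, applied to Huh-7 cells in sterol-depleting medium with 5% LPDS, 2 µM lovastatin and 10 µM mevalonate.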
On the technique in general: In qPCR the cycle at which signal appears reflects the starting amount.

The test system of a further experiment is SREBP pathway. Kind of experiment: SREBP luciferase reporter gene system (SRE-luciferase assay). The experiment is classed as cell-based, human. The following applies: Huh-7/SRE-luc cells, sterol-deficient medium, 0.01-10 µM. In a few lines: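 Readout was SRE-driven luciferase normalised to GFP fluorescence in lysates of stably transfected Huh-7/SRE-luc hepatoma cells. Compounds (0.01, 0.03, 0.1, 0.3, 1.0, 3.0, 10 µM; DMSO control) were applied for 16 h in sterol-depleted medium with 2 µM lovastatin and 10 µM mevalonate; IC50 from variable-slope fit.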

Usually IC50 stands for the point on the concentration scale where inhibition reaches its midpoint. Turning to `COc1ccnc(OC)c1C(O)CCC[C@@H](C)[C@H]1CC[C@H]2[C@H]3[C@H](CC[C@]12C)[C@@]1(C)CC[C@H](O)[C@H](O)[C@@H]1CC3(F)F` (single isomer, unassigned) [Compound 171, (1R,3aS,3bS,5aR,6R,7S,9aR,9bS,11aR)-1-[(2R,6S)-6-(2,4-dimethoxypyridin-3-yl)-6-hydroxyhexan-2-yl]-4,4-difluoro-9a,11a-dimethylhexadecahydro-1H-cyclopenta[1,2-a]phenanthrene-6,7-diol or (1R,3aS,3bS,5aR,6R,7S,9aR,9bS,11aR)-1-[(2R,6R)-6-(2,4-dimethoxypyridin-3-yl)-6-hydroxyhexan-2-yl]-4,4-difluoro-9a,11a-dimethylhexadecahydro-1H-cyclopenta[1,2-a]phenanthrene-6,7-diol], the figures for the IC50 (in experiment [1]; with SREBP pathway (16 hours)) were < 0.2 µM and 0.013 µM, respectively.
Consider `C[C@H](CCCC(O)c1ccccc1F)[C@H]1CC[C@H]2C3=C(F)CC4C[C@@H](O)CC[C@]4(C)[C@H]3CC[C@]12C` (stereo partly drawn) [Compound 75, (1R,3aR,7S,9aS,9bR,11aR)-4-fluoro-1-[(2R)-6-(2-fluorophenyl)-6-hydroxyhexan-2-yl]-9a,11a-dimethyl-2,3,3a,5,5a,6,7,8,9,9a,9b,10,11,11a-tetradecahydro-1H-cyclopenta[1,2-a]phenanthren-7-ol], for which the IC50 in experiment [1] was < 0.2 µM; in the experiment with SREBP pathway (Homo sapiens, Huh-7, 16 h) it was 0.37 µM.
In the case of `C[C@H](CCCC(O)c1ccc(F)nc1F)[C@H]1CC[C@H]2[C@H]3[C@H](CC[C@]12C)[C@@]1(C)CC[C@H](O)[C@H](O)[C@@H]1CC3(F)F` (single isomer, unassigned) [Compound 227, (1R,3aS,3bS,5aR,6R,7S,9aR,9bS,11aR)-1-[(2R,6R)-6-(2,6-difluoropyridin-3-yl)-6-hydroxyhexan-2-yl]-4,4-difluoro-9a,11a-dimethylhexadecahydro-1H-cyclopenta[1,2-a]phenanthrene-6,7-diol or (1R,3aS,3bS,5aR,6R,7S,9aR,9bS,11aR)-1-[(2R,6S)-6-(2,6-difluoropyridin-3-yl)-6-hydroxyhexan-2-yl]-4,4-difluoro-9a,11a-dimethylhexadecahydro-1H-cyclopenta[1,2-a]phenanthrene-6,7-diol], the values for the IC50 (in experiment [1]; in the experiment on SREBP pathway (16 hours)) were 0.2 to 0.5 µM and 0.014 µM, respectively.
With `COc1cc(F)c([C@H](O)CCC[C@@H](C)[C@H]2CC[C@H]3[C@H]4[C@H](CC[C@]23C)[C@@]2(C)CC[C@H](O)[C@H](O)[C@@H]2CC4(F)F)c(F)c1Br` (single isomer, unassigned) [Compound 199], the IC50 in experiment [1] is 0.2 to 0.5 µM; in the experiment on SREBP pathway (Homo sapiens, Huh-7, 16 h), 0.152 µM.
Turning to `C[C@H](CCCC(O)c1cccc2cnn(C)c12)[C@H]1CC[C@H]2[C@H]3[C@H](CC[C@]12C)[C@@]1(C)CC[C@H](O)[C@H](O)[C@@H]1CC3(F)F` (single isomer, unassigned) [Compound 244, (1R,3aS,3bS,5aR,6R,7S,9aR,9bS,11aR)-4,4-difluoro-1-[(2R,6R)-6-hydroxy-6-(1-methylindazol-7-yl)hexan-2-yl]-9a,11a-dimethylhexadecahydro-1H-cyclopenta[1,2-a]phenanthrene-6,7-diol or (1R,3aS,3bS,5aR,6R,7S,9aR,9bS,11aR)-4,4-difluoro-1-[(2R,6S)-6-hydroxy-6-(1-methylindazol-7-yl)hexan-2-yl]-9a,11a-dimethylhexadecahydro-1H-cyclopenta[1,2-a]phenanthrene-6,7-diol], the IC50 in experiment [1] is < 0.2 µM; with SREBP pathway (16 hours) it was 0.06 µM.
Regarding `C[C@H](CCCC(O)c1ccc(F)cc1)[C@H]1CC[C@H]2[C@H]3[C@H](CC[C@]12C)[C@@]1(C)CC[C@H](O)[C@H](O)[C@@H]1CC3(F)F` (stereo partly drawn) [Compound 100, (1R,3aS,3bS,5aR,6R,7S,9aR,9bS,11aR)-4,4-difluoro-1-[(2R)-6-(4-fluorophenyl)-6-hydroxyhexan-2-yl]-9a,11a-dimethylhexadecahydro-1H-cyclopenta[1,2-a]phenanthrene-6,7-diol], the IC50 in experiment [1] is 0.2 to 0.5 µM; in the experiment with SREBP pathway (Homo sapiens, Huh-7, 16 h), 0.179 µM.
For the molecule `COc1cc(F)ccc1C(O)CCC[C@@H](C)[C@H]1CC[C@H]2[C@H]3[C@H](CC[C@]12C)[C@@]1(C)CC[C@H](O)C(=O)[C@@H]1CC3(F)F` (stereo partly drawn) [Compound 184, (1R,3aS,3bS,5aR,7S,9aR,9bS,11aR)-4,4-difluoro-1-[(2R)-6-(4-fluoro-2-methoxyphenyl)-6-hydroxyhexan-2-yl]-7-hydroxy-9a,11a-dimethylhexadecahydro-1H-cyclopenta[1,2-a]phenanthren-6-one], the IC50 in experiment [1] was < 0.2 µM; with SREBP pathway (Homo sapiens, Huh-7, 16 h), 0.031 µM.
Consider `COc1cccc(F)c1C(O)CCC[C@@H](C)[C@H]1CC[C@H]2C3=C(F)C[C@H]4[C@@H](O)[C@@H](O)CC[C@]4(C)[C@H]3CC[C@]12C` (stereo partly drawn) [Compound 105, (1R,3aR,5aR,6R,7S,9aR,9bR,11aR)-4-fluoro-1-[(2R)-6-(2-fluoro-6-methoxyphenyl)-6-hydroxyhexan-2-yl]-9a,11a-dimethyl-2,3,3a,5,5a,6,7,8,9,9a,9b,10,11,11a-tetradecahydro-1H-cyclopenta[1,2-a]phenanthrene-6,7-diol], for which the IC50 in experiment [1] is 0.2 to 0.5 µM; in the experiment on SREBP pathway (Homo sapiens, Huh-7, 16 h), 0.109 µM.
`C[C@H](CCCC(O)c1nnnn1C)[C@H]1CC[C@H]2[C@H]3[C@H](CC[C@]12C)[C@@]1(C)CC[C@H](O)C[C@@H]1CC3(F)F` (stereo partly drawn) [Compound 373, (1R,3aS,3bR,5aR,7S,9aS,9bS,11aR)-4,4-difluoro-1-[(2R)-6-hydroxy-6-(1-methyl-1,2,3,4-tetrazol-5-yl)hexan-2-yl]-9a,11a-dimethylhexadecahydro-1H-cyclopenta[1,2-a]phenanthren-7-ol]: the IC50 was < 0.2 µM in experiment [1] and 0.078 µM in the experiment with SREBP pathway (Homo sapiens, Huh-7, 16 h).
With `C[C@H](CCC[C@H](O)c1c(F)ccnc1F)[C@H]1CC[C@H]2[C@H]3[C@H](CC[C@]12C)[C@@]1(C)CC[C@H](O)[C@H](O)[C@@H]1CC3(F)F` (single isomer, unassigned) [Compound 233], the IC50 in experiment [1] was 0.2 to 0.5 µM; with SREBP pathway (Homo sapiens, Huh-7, 16 h), 0.106 µM.
As to `COc1cccc(F)c1C(O)CCC[C@@H](C)[C@H]1CC[C@H]2[C@H]3[C@H](CC[C@]12C)[C@@]1(C)CC[C@H](O)C[C@@H]1CC3(F)F` (single isomer, unassigned) [Compound 314], the IC50 in experiment [1] is 0.5 to 0.9 µM; in the experiment with SREBP pathway (Homo sapiens, Huh-7, 16 h) it was 0.14 µM.
For the molecule `COc1cccc(F)c1C(O)CCC[C@@H](C)[C@H]1CC[C@H]2[C@H]3[C@H](CC[C@]12C)[C@@]1(C)CC[C@H](O)C[C@@H]1CC3(F)F` (stereo partly drawn) [Compound 302, (1R,3aS,3bR,5aR,7S,9aS,9bS,11aR)-4,4-difluoro-1-[(2R)-6-(2-fluoro-6-methoxyphenyl)-6-hydroxyhexan-2-yl]-9a,11a-dimethylhexadecahydro-1H-cyclopenta[1,2-a]phenanthren-7-ol], the IC50 in experiment [1] is < 0.2 µM; in the experiment on SREBP pathway (Homo sapiens, Huh-7, 16 h), 0.085 µM.
For `COc1ccc(C(O)CCC[C@@H](C)[C@H]2CC[C@H]3[C@H]4[C@H](CC[C@]23C)[C@@]2(C)CC[C@H](O)[C@H](O)[C@@H]2CC4(F)F)c(F)n1` (single isomer, unassigned) [Compound 241, (1R,3aS,3bS,5aR,6R,7S,9aR,9bS,11aR)-4,4-difluoro-1-[(2R,6R)-6-(2-fluoro-6-methoxypyridin-3-yl)-6-hydroxyhexan-2-yl]-9a,11a-dimethylhexadecahydro-1H-cyclopenta[1,2-a]phenanthrene-6,7-diol or (1R,3aS,3bS,5aR,6R,7S,9aR,9bS,11aR)-4,4-difluoro-1-[(2R,6S)-6-(2-fluoro-6-methoxypyridin-3-yl)-6-hydroxyhexan-2-yl]-9a,11a-dimethylhexadecahydro-1H-cyclopenta[1,2-a]phenanthrene-6,7-diol], the IC50 was < 0.2 µM in experiment [1] and 0.14 µM in the experiment on SREBP pathway (Homo sapiens, Huh-7, 16 h).
For the molecule `C[C@H](CCC(=O)N(C)c1ccccc1F)[C@H]1CC[C@H]2[C@H]3[C@H](CC[C@]12C)[C@@]1(C)CC[C@H](O)[C@H](O)[C@@H]1CC3(F)F` [Compound 95, (4R)-4-[(1R,3aS,3bS,5aR,6R,7S,9aR,9bS,11aR)-4,4-difluoro-6,7-dihydroxy-9a,11a-dimethylhexadecahydro-1H-cyclopenta[1,2-a]phenanthren-1-yl]-N-(2-fluorophenyl)-N-methylpentanamide], the IC50 in experiment [1] was < 0.2 µM; in the experiment with SREBP pathway (Homo sapiens, Huh-7, 16 h), 0.08 µM.
For the molecule `C[C@H](CCCC(O)c1nc2ccccc2[nH]1)[C@H]1CC[C@H]2[C@H]3[C@H](CC[C@]12C)[C@@]1(C)CC[C@H](O)[C@H](O)[C@@H]1CC3(F)F` (stereo partly drawn) [Compound 303, (1R,3aS,3bS,5aR,6R,7 S,9aR,9bS,11aR)-4,4-Difluoro-1-[(2R)-6-hydroxy-6-(1H-benzo[d]imidazol-2-yl)hexan-2-yl]-9a,11a-dimethylhexadecahydro-1H-cyclopenta[1,2-a]phenanthrene-6,7-diol], the IC50 in experiment [1] is < 0.2 µM; in the experiment on SREBP pathway (Homo sapiens, Huh-7, 16 h), 0.109 µM.
For `C[C@H](CCCC(O)c1c(F)cc(F)cc1F)[C@H]1CC[C@H]2[C@H]3[C@H](CC[C@]12C)[C@@]1(C)CC[C@H](O)[C@H](O)[C@@H]1CC3(F)F` (stereo partly drawn) [Compound 69, (1R,3aS,3bS,5aR,6R,7S,9aR,9bS,11aR)-4,4-difluoro-1-[(2R)-6-hydroxy-6-(2,4,6-trifluorophenyl)hexan-2-yl]-9a,11a-dimethylhexadecahydro-1H-cyclopenta[1,2-a]phenanthrene-6,7-diol], the IC50 in experiment [1] is < 0.2 µM; with SREBP pathway (Homo sapiens, Huh-7, 16 h) it was 0.086 µM.
With `COc1cc(F)cc(F)c1C(O)CCC[C@@H](C)[C@H]1CC[C@H]2C3CC[C@H]4[C@@H](O)[C@@H](O)CC[C@]4(C)[C@H]3CC[C@]12C` (stereo in doubt) [Compound 104, (1R,3aS,5aR,6R,7S,9aR,9bS,11aR)-1-[(2R)-6-(2,4-Difluoro-6-methoxyphenyl)-6-hydroxyhexan-2-yl]-9a,11a-dimethylhexadecahydro-1H-cyclopenta[1,2-a]phenanthrene-6,7-diol], the IC50 in experiment [1] was 0.2 to 0.5 µM; with SREBP pathway (Homo sapiens, Huh-7, 16 h), 0.25 µM.
